Experimental findings from ChEMBL document CHEMBL4393659, “Insights into the chemistry and therapeutic potential of furanones: A versatile pharmacophore” (Eur J Med Chem, 2019) are described below.

Converted amounts (≈) assume the structure as drawn. A value given as a limit tells only on which side of the number the result lay.

Data set [1] has as its system Mus musculus. The experiment in a line: Analgesic activity in albino mouse assessed as inhibition of acetic acid induced writhing at 10 mg/kg , po. It counts as functional. (In writhing tests, fewer writhes than in controls are read as antinociception.)
Data set [2] has as its system Rattus norvegicus. The experiment in a line: Antiinflammatory activity in rat assessed as inhibition of carrageenan-induced paw edema at 10 mg/kg , po and measured after 4 hrs of carrageenan addition relative to control. It is filed as functional.
The subject of data set [3] is H5N1 subtype. The experiment in a line: Antiviral activity against H5N1 virus infected in MDCK cells assessed as virus-induced cytopathogenicity infected for 2 hrs followed by virus washout and incubated for 3 days. The following applies: Influenza A virus. It counts as functional, organism-based. A general note: Protection from cytopathic effect is a common read-out in antiviral testing.

A short description of data set [4]: Cytotoxicity against dog MDCK cells assessed as reduction in cell viability incubated for 24 hrs by MTT assay. It is filed as cell-based, Canis lupus familiaris. Particulars: read-out: LD50. Background: Tetrazolium dyes change colour on reduction, which living cells bring about.
For data set [5], the system named is CYP3A4. The experiment in a line: Inhibition of CYP3A4 in Sprague-Dawley rat liver microsome assessed as remaining activity by measuring 1'-hydroxylation of midazolam at 3 x 10^-5 M after 20 mins. It counts as ADME. Particulars: liver microsomes, probe midazolam (1'-hydroxylation), read-out: INH.
Data set [6] deals with Scedosporium boydii. The experiment in a line: Antifungal activity against Pseudallescheria boydii BMU04772 assessed as reduction in fungal cell growth incubated for 24 hrs by broth dilution method. It is filed as functional. Particulars: BMU04772, 24 h.
For data set [7], the system named is Pyricularia oryzae. The experiment in a line: Antifungal activity against Pyricularia oryzae CGMCC 3.3283 assessed as reduction in fungal cell growth incubated for 24 hrs by broth dilution method. The following applies: CGMCC 3.3283, 24 h. It counts as functional.
Data set [8] relates to Fusarium graminearum. The experiment in a line: Antifungal activity against Gibberella zeae CGMCC 3.2873 assessed as reduction in fungal cell growth incubated for 24 hrs by broth dilution method. It is filed as functional. Particulars: CGMCC 3.2873, 24 h.
Data set [9] deals with Fusarium oxysporum. The experiment in a line: Antifungal activity against Fusarium oxysporum CGMCC 3.2830 assessed as reduction in fungal cell growth incubated for 24 hrs by broth dilution method. Particulars: CGMCC 3.2830, 24 h. It is filed as functional.
For data set [10], the species on record is Rattus norvegicus. The experiment in a line: Antiarthritic activity in adjuvant-induced Sprague-Dawley rat. It is filed as functional.
For data set [11], the system named is Rattus norvegicus. The experiment in a line: Antiinflammatory activity in Sprague-Dawley rat assessed as inhibition of carrageenan-induced paw edema at 3 mg/kg , po incubated for 1 hr followed by carrageenan addition and measured after 4 hrs relative to control. It counts as functional.
Data set [12] deals with Rattus norvegicus. Kind of data set: Antiinflammatory activity in Sprague-Dawley rat assessed as inhibition of carrageenan-induced paw edema at 3 mg/kg , po relative to control. It is filed as functional.
A short description of data set [13]: Ulcerogenicity in Sprague-Dawley rat assessed as gastric lesions at 30 mg/kg , po measured after 4 hrs. It is filed as toxicity, organism-based. Particulars: in vivo.
Data set [14] has as its system Globisporangium ultimum. Kind of data set: Antifungal activity against Pythium ultimum assessed as reduction in fungal cell growth incubated for 48 hrs by broth dilution method. It is filed as functional.
The test system of data set [15] is Rhizoctonia solani. Kind of data set: Antifungal activity against Rhizoctonia solani assessed as reduction in fungal germ tube growth measured between 4 to 24 hrs by inverted microscopy. It counts as functional. Particulars: read-out: ED50 (the source's name).
Data set [16] concerns Fusarium oxysporum. Kind of data set: Antifungal activity against Fusarium oxysporum assessed as reduction in fungal spore germination measured between 4 to 24 hrs by inverted microscopy. It counts as functional. The following applies: read-out: ED50 (the source's name).
Data set [17] has as its system Globisporangium ultimum. The experiment in a line: Antifungal activity against Pythium ultimum assessed as reduction in fungal spore germination measured between 4 to 24 hrs by inverted microscopy. It is filed as functional. The following applies: read-out: ED50 (the source's name).
Data set [18] relates to Berkeleyomyces basicola. Kind of data set: Antifungal activity against Thielaviopsis basicola assessed as reduction in fungal spore germination measured between 4 to 24 hrs by inverted microscopy. It counts as functional. The following applies: read-out: ED50 (the source's name).
Data set [19] concerns Fusarium solani. Kind of data set: Antifungal activity against Fusarium solani assessed as reduction in fungal spore germination measured between 4 to 24 hrs by inverted microscopy. It counts as functional. The following applies: read-out: ED50 (the source's name).
In data set [20] the test system is Candida albicans. The experiment in a line: Antifungal activity against Candida albicans assessed as inhibition of fungal cell growth incubated for 72 hrs by disk diffusion method relative to control. It is filed as functional.
Data set [21] is described as follows: Antioxidant activity assessed as superoxide anion scavenging activity at pH 7.4 phosphate buffer incubated for 5 mins by NBT assay. It is filed as functional.
Data set [22] concerns Liver. The experiment in a line: Antioxidant activity in rat liver microsomes assessed as reduction in ferrous salt/ascorbic acid-induced lipid peroxidation of membrane lipids by measuring malondialdehyde level after 90 mins by spectrophotometry. It is filed as functional, Microsome. Particulars: 1.5 h.
Data set [23] is described as follows: Antioxidant activity assessed as DPPH radical scavenging activity measured for each 5 mins for 3 hrs. It counts as functional.
Data set [24] relates to Mycobacterium tuberculosis. The experiment in a line: Antimycobacterial activity against Mycobacterium tuberculosis H37Rv ATCC 27294 at 0.19 to 100 ug/ml incubated for 4 days by microplate alamar blue assay. Particulars: H37Rv ATCC 27294, 96 h. It counts as functional, organism-based.
In data set [25] the test system is MAC16. Kind of data set: Antitumor activity in mouse MAC16 cells xenografted in NMRI mouse assessed as reduction in tumor weight administered after 2 days of transplantation and measured after 7 day. It is filed as functional.
In data set [26] the test system is MAC16. Kind of data set: Antiproliferative activity against mouse MAC16 cells assessed as reduction in cell viability incubated for 3 days by MTT assay. It counts as functional, cell-based. The following applies: MAC16, 72 h.
Data set [27] relates to MAC13. The experiment in a line: Antiproliferative activity against mouse MAC13 cells assessed as reduction in cell viability incubated for 3 days by MTT assay. It counts as functional, cell-based. Particulars: MAC13, 72 h.
The target of data set [28] is Prostaglandin G/H synthase 2 (Cavia porcellus, UniProt P70682). The experiment in a line: Inhibition of COX2 in guinea pig blood assessed as reduction of LPS-induced PGE2 accumulation at 10 to 10000 nM preincubated with LPS followed by compound addition and incubated for 6 or 24 hrs by EIA method. It is filed as tissue-based.
Chain of Prostaglandin G/H synthase 2 (Cavia porcellus, UniProt P70682) (P70682 whole entry): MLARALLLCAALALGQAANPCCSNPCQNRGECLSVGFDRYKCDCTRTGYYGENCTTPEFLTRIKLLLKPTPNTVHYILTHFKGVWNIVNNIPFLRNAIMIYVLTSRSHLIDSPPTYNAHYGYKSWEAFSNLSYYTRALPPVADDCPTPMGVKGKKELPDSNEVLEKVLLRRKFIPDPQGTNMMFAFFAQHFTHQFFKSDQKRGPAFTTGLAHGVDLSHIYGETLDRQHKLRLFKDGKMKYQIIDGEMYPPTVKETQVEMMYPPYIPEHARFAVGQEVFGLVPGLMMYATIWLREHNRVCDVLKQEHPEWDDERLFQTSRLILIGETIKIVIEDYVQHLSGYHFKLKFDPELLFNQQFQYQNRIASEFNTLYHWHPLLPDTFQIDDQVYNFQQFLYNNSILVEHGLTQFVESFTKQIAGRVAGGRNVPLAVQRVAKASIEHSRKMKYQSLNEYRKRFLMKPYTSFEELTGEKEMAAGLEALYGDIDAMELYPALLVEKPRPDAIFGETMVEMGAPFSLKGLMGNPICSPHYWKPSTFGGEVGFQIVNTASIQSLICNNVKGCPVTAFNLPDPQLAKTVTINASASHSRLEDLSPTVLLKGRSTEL
Data set [29] deals with Mus musculus. Kind of data set: Antiinflammatory activity in carrageenan-induced C57Bl/6 mouse model of inflammation assessed as inhibition of PGE2 accumulation in air pouch at 0.1 to 10 mg/kg , po pretreated with carrageenan for 20 hrs and followed by compound administration and measured after 4 hrs. It is filed as functional. The following applies: C57B1/6, po.
The target in data set [30] is Prostaglandin G/H synthase 2 (Oryctolagus cuniculus, UniProt O02768). Kind of data set: Inhibition of COX2 in rabbit whole blood assessed as reduction of LPS-induced PGE2 accumulation at 10 to 10000 nM preincubated with LPS followed by compound addition and incubated for 6 or 24 hrs by EIA method. It is filed as tissue-based.
Chain of Prostaglandin G/H synthase 2 (Oryctolagus cuniculus, UniProt O02768) (O02768 whole entry): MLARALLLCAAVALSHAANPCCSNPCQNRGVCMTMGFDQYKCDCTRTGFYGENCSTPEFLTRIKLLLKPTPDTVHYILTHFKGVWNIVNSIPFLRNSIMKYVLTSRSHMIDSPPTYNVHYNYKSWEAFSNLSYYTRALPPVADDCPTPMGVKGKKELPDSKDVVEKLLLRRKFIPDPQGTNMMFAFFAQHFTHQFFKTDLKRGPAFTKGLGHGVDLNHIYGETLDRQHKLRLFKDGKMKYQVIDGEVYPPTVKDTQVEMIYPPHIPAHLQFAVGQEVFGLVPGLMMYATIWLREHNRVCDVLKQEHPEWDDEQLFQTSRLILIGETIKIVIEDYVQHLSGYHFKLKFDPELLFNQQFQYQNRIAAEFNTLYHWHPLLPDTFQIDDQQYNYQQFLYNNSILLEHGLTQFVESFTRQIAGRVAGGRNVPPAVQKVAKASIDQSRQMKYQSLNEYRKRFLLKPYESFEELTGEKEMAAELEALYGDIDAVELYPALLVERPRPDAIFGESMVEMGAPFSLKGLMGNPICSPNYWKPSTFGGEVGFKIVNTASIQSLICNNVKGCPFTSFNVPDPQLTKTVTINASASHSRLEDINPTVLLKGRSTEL
Data set [31] relates to Diaphania hyalinata. Kind of data set: Insecticidal activity against Diaphania hyalinata assessed as reduction in living insects observed after 48 hrs. It counts as functional.

What is called inhibition in vivo is the percentage by which the read-out fell short of the control. For the compound `O=C(O)Cc1ccccc1Nc1c(Cl)cccc1Cl` [DICLOFENAC], the inhibition in vivo at 10 mg/kg in data set [1] came to 67.7%; in data set [2], 78.6%.
In the case of `O=C1OC(c2ccccc2)=C/C1=N/Nc1ccc(Br)cc1`, the EC50 in [3] is below 100 µg/mL. In addition, the CC50 at 24 h in data set [4] was below 100 µg/mL.
For the compound `COC(=O)C1=C(C)OC(C)(C)C1=O`, the activity at 20 min, 30 µM in [5] stood at 57.1%.
In general, MIC refers to the smallest concentration in the dilution series that meets the test's criterion for growth inhibition. For `COC(=O)C[C@]1(O)OC(=O)C(C)=C1C`, the MIC came to 0.15 µg/mL (≈ 0.749 µM) in data set [6], 1.25 µg/mL (≈ 6.24 µM) in data set [7], 2 µg/mL (≈ 9.99 µM) in [8] and 2.5 µg/mL (≈ 12.5 µM) in [9].
For orientation: ED50 means the dose at which the effect has come halfway, by size or by number of responders. In the case of `CC1(C)OC(c2ccc(S(C)(=O)=O)cc2)=C(c2cc(F)cc(F)c2)C1=O`, the ED50 in data set [10] is 0.03 mg/kg/day. In addition, the inhibition in vivo at 3 mg/kg in data set [11] and in [12] was 34% each time. For the same compound, the UI in [13] was 1.8.
As to `Cc1cc(O)c2c(c1)C(c1c(O)cccc1O)OC2=O` (stereo unspecified), in data set [14], the MIC worked out at 40 µg/mL (≈ 147 µM).
In the case of `CCCC/C=C\C1=CC(C)OC1=O` (stereo unspecified), the EC50 in [15] was 61 µg/mL (≈ 338 µM); in [16], 56 µg/mL (≈ 311 µM); in data set [17], 45 µg/mL (≈ 250 µM); in [18] it was 25 µg/mL (≈ 139 µM); in data set [19], 54 µg/mL (≈ 300 µM).
As to `O=C1OC(c2ccccc2)=C/C1=C/c1ccc([N+](=O)[O-])cc1`, the “growth inhibition (GI)” value in data set [20] stood at 66%.
By IC50 is commonly meant the concentration at which inhibition is half-maximal. `O=C1OC(c2cccc(O)c2O)C(c2ccccc2)=C1O` (stereo unspecified): the IC50 in data set [21] was 187 µM; in data set [22] it was 129 µM; in [23], 10.3 µM.
In [24], `COc1ccc(/C=C2/C=C(c3ccc(Br)cc3)OC2=O)cc1OC` had an IC50 of 26.8 µg/mL (≈ 69.1 µM).
As for `O=C1OC(c2ccccc2)C(Cl)=C1Cl` (stereo unspecified), the “inhibition (INH)” value in [25] is recorded as 24%. Moreover, the half-maximal inhibitory concentration (IC50) in data set [26] and in data set [27] was 50 µM throughout.
Take `CS(=O)(=O)c1ccc(C2=C(c3ccc(F)c(F)c3)C(=O)OC2)cc1`: the half-inhibitory concentration (IC50) in [28] was determined as 0.6 µM; in data set [30], 2.8 µM. Moreover, in data set [29], the ED50 was determined as 0.5 mg/kg.
Turning to `CC(C)O[C@@H]1OC(=O)[C@@H]2[C@H]1[C@@H]1C=C[C@H]2C1`, in [31], the LD50 came out at 44.51 µM/g.
